The values below come from patent publication EP4226916A1, “LIPID NANOPARTICLE COMPRISING PHOSPHATIDYLSERINE” (Universität Basel, priority 2022, dated 2023).

The experiment concerns cellular uptake of PS-LNPs and LNPs. The experiment is described as follows: Cellular uptake inhibition experiments. The note with it: at least 50% inhibition considered significant. The experiment is classed as cell-based. The source says: To elucidate mechanisms of cellular uptake and intracellular processing in the presence and absence of PS, we conducted a series of cellular uptake inhibition experiments. An arbitrary threshold of at least 50% inhibition was considered to be significant.

Each structure is given as a SMILES string.

`CN(C)CCCN1c2ccccc2Sc2ccc(Cl)cc21` [Chlorpromazine]: the “inhibition of uptake of PS-LNPs” value is on record as “specifically inhibited”.

As for `COc1cc2c(c(OC)c1OC)-c1ccc(OC)c(=O)cc1[C@@H](NC(C)=O)CC2` [Colchicine], the “inhibition of uptake of LNPs (without PS)” value is given as “specifically inhibited” and the “inhibition of uptake of PS-LNPs” value is listed as “specifically inhibited”.

For `O=C(N/N=C/c1ccc(O)c(O)c1)c1cc2ccccc2cc1O` [Dynasore], the “inhibition of uptake of LNPs (without PS)” value was “specifically inhibited” and the “inhibition of uptake of PS-LNPs” value is “specifically inhibited”.
